Results reported in PubChem BioAssay AID330 (DTP/NCI, 2004).
Several values for one entry are separate records, joined by “and”; a condition that tells them apart may be missing. Equal entries are not always repeated. Toxic doses and inconclusive results are not listed. Peptide text beside a SMILES is read from it. * marks the point of attachment. Boc = CC(C)(C)OC(=O)*; NHNH2 = NN*

Test system: P388 leukemia ip, CD2F1 mice, survival T/C
Assay: NCI In Vivo Anticancer Drug Screen. Data for tumor model P388 Leukemia (intraperitoneal) in CD2F1 (CDF1) mice
Conditions: endpoint: median survival time, higher = longer survival
Outline: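 Mice carrying the transplanted tumor received test compound or vehicle. Survival was recorded in each group, and the value is the treated-group measurement divided by that of the vehicle-treated control group.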

[1] = dose: 60.0 mg/kg/injection, schedule: Q01DX005 (ip), vehicle: saline with Tween-80
[2] = dose: 120.0 mg/kg/injection, schedule: Q01DX005 (ip), vehicle: saline with Tween-80
[3] = dose: 240.0 mg/kg/injection, schedule: Q01DX005 (ip), vehicle: saline with Tween-80

Q: How did the T/C (dose: 25.0 mg/kg/injection, schedule: Q01DX005 (ip), vehicle: saline with Tween-80) turn out when `O=C(Oc1ccccc1)c1cc(O)c(O)c(O)c1` was run?
A: Its T/C is 100 % of control and 95 % of control.

Q: And the T/C (dose: 50.0 mg/kg/injection, schedule: Q01DX005 (ip), vehicle: saline with Tween-80)?
A: Its T/C is 100 % of control and 101 % of control.

Q: And the T/C (dose: 100.0 mg/kg/injection, schedule: Q01DX005 (ip), vehicle: saline with Tween-80)?
A: The T/C was 99 % of control and 100 % of control.

Q: What about the T/C (dose: 200.0 mg/kg/injection, schedule: Q01DX005 (ip), vehicle: saline with Tween-80) of the same compound?
A: Its T/C is 101 % of control and 116 % of control.

Q: What about the T/C (dose: 400.0 mg/kg/injection, schedule: Q01DX005 (ip), vehicle: saline with Tween-80) of the same compound?
A: The T/C was 109 % of control.

Q: For `[Cl][Pt+2][Cl].[NH-]C1CCC1.[NH2-]`, which T/C (dose: 1.5 mg/kg/injection, schedule: Q01DX005 (ip), vehicle: saline) is on record?
A: Its T/C is 155 % of control and 167 % of control.

Q: What about the T/C (dose: 3.0 mg/kg/injection, schedule: Q01DX005 (ip), vehicle: saline) of the same compound?
A: Its T/C is 155 % of control and 189 % of control and 190 % of control.

Q: And the T/C (dose: 12.0 mg/kg/injection, schedule: Q01DX005 (ip), vehicle: saline)?
A: The T/C was 214 % of control.

Q: `CCCCOP(O)(=S)OCCCC.[Er]` was tested. Which T/C (dose: 100.0 mg/kg/injection, schedule: Q04DX002 (ip), vehicle: saline with Tween-80) did it give?
A: The T/C was 96 % of control.

Q: And the T/C (dose: 200.0 mg/kg/injection, schedule: Q04DX002 (ip), vehicle: saline with Tween-80)?
A: Its T/C is 101 % of control.

Q: And the T/C (dose: 400.0 mg/kg/injection, schedule: Q04DX002 (ip), vehicle: saline with Tween-80)?
A: The T/C was 95 % of control.

Q: How did the T/C (dose: 6.25 mg/kg/injection, schedule: Q04DX003 (ip), vehicle: water) turn out when `COCC(=O)[C@]1(O)Cc2c(O)c3c(c(O)c2[C@@H](OC2CC(N)C(O)C(C)O2)C1)C(=O)c1c(OC)cccc1C3=O` (stereo not given in full) was run?
A: The T/C was 100 % of control.

Q: And the T/C (dose: 12.5 mg/kg/injection, schedule: Q04DX003 (ip), vehicle: water)?
A: The T/C was 100 % of control.

Q: And the T/C (dose: 25.0 mg/kg/injection, schedule: Q04DX003 (ip), vehicle: water)?
A: The T/C was 109 % of control.

Q: And the T/C (dose: 100.0 mg/kg/injection, schedule: Q04DX003 (ip), vehicle: water)?
A: The T/C was 118 % of control.

Q: What about the T/C (dose: 200.0 mg/kg/injection, schedule: Q04DX003 (ip), vehicle: water) of the same compound?
A: The T/C was 87 % of control.

Q: Which T/C [1] does the source give for `COC(=O)C1(CC(=O)CC(=O)CC2(C(=O)OC)NC(=S)NC(=O)C2C#N)NC(=S)NC(=O)C1C#N` (stereo not given) here?
A: The T/C was 106 % of control.

Q: And the T/C [2]?
A: The T/C was 100 % of control.

Q: And the T/C [3]?
A: Its T/C is 100 % of control.

Q: With `Cc1ccc2c(NCCCCCCCCNc3c4ccccc4nc4cc(C)ccc34)c3ccccc3nc2c1` as the compound, how does the T/C (dose: 2.5 mg/kg/injection, schedule: Q01DX009 (ip), vehicle: water) read?
A: Its T/C is 150 % of control.

Q: Which results are given for `CCOC(=O)C1=C(N)CCC2(C1)c1ccccc1-c1ccccc12`?
A: T/C (dose: 100.0 mg/kg/injection, schedule: Q01DX001 (ip), vehicle: saline with Tween-80): 97 % of control; T/C (dose: 200.0 mg/kg/injection, schedule: Q01DX001 (ip), vehicle: saline with Tween-80): 103 % of control; T/C (dose: 400.0 mg/kg/injection, schedule: Q01DX001 (ip), vehicle: saline with Tween-80): 93 % of control

Q: Which results are given for `COC(=O)C1(CC(=O)c2ccc(OC)cc2)NC(=S)NC(=O)C1C#N` (stereo not given)?
A: T/C (dose: 60.0 mg/kg/injection, schedule: Q01DX005 (ip), vehicle: saline): 100 % of control; T/C (dose: 120.0 mg/kg/injection, schedule: Q01DX005 (ip), vehicle: saline): 98 % of control; T/C (dose: 240.0 mg/kg/injection, schedule: Q01DX005 (ip), vehicle: saline): 86 % of control

Q: Which T/C (dose: 50.0 mg/kg/injection, schedule: Q01DX009 (ip), vehicle: Klucel (hydroxypropylcellulose) (HPC)) does the source give for `CC(C)(C)OC(=O)NC(Cc1c[nH]c2ccccc12)C(=O)NC(Cc1ccccc1)C(=O)NN` (stereo not drawn) (Boc-Trp-Phe-NHNH2; configuration not given here) here?
A: Its T/C is 92 % of control.

Q: What about the T/C (dose: 100.0 mg/kg/injection, schedule: Q01DX009 (ip), vehicle: Klucel (hydroxypropylcellulose) (HPC)) of the same compound?
A: Its T/C is 88 % of control.

Q: What about the T/C (dose: 200.0 mg/kg/injection, schedule: Q01DX009 (ip), vehicle: Klucel (hydroxypropylcellulose) (HPC)) of the same compound?
A: Its T/C is 91 % of control.

Q: Which T/C [1] does the source give for `CC(C)(C)c1cc(C(c2ccc3c(c2)OCO3)N2CCOCC2)c(O)c(C(C)(C)C)c1` (stereo not given) here?
A: Its T/C is 100 % of control.

Q: What about the T/C [2] of the same compound?
A: The T/C was 100 % of control.

Q: And the T/C [3]?
A: Its T/C is 100 % of control.

Q: For `COc1ccc(C(=S)NC(O)C(=O)c2ccc(Cl)cc2)cc1OC` (stereo not given), which T/C (dose: 50.0 mg/kg/injection, schedule: Q01DX009 (ip), vehicle: saline with Tween-80) is on record?
A: Its T/C is 103 % of control.

Q: And the T/C (dose: 100.0 mg/kg/injection, schedule: Q01DX009 (ip), vehicle: saline with Tween-80)?
A: The T/C was 103 % of control.

Q: For `CC1CN1P(=S)(N1CC1C)N1CC1C` (stereo not given), which T/C (dose: 2.5 mg/kg/injection, schedule: Q01DX010 (ip), vehicle: saline) is on record?
A: The T/C was 110 % of control.

Q: What about the T/C (dose: 5.0 mg/kg/injection, schedule: Q01DX010 (ip), vehicle: saline) of the same compound?
A: Its T/C is 95 % of control.

Q: And the T/C (dose: 10.0 mg/kg/injection, schedule: Q01DX010 (ip), vehicle: saline)?
A: Its T/C is 115 % of control.

Q: For `O=C1C=CC(=O)C2=C1C1CCCC1C1CCCC21` (stereo not given), which T/C (dose: 25.0 mg/kg/injection, schedule: Q01DX009 (ip), vehicle: saline) is on record?
A: The T/C was 123 % of control.

Q: What about the T/C (dose: 50.0 mg/kg/injection, schedule: Q01DX009 (ip), vehicle: saline) of the same compound?
A: The T/C was 105 % of control.

Q: What about the T/C (dose: 100.0 mg/kg/injection, schedule: Q01DX009 (ip), vehicle: saline) of the same compound?
A: The T/C was 113 % of control.

Q: How did the T/C (dose: 0.79 mg/kg/injection, schedule: Q04DX003 (ip), vehicle: saline with Tween-80) turn out when `CC(C)([CH2][Sn]([CH3])([Cl])[Cl])c1ccccc1` was run?
A: The T/C was 99 % of control and 101 % of control.

Q: And the T/C (dose: 1.56 mg/kg/injection, schedule: Q04DX003 (ip), vehicle: saline with Tween-80)?
A: The T/C was 99 % of control and 116 % of control and 98 % of control.

Q: What about the T/C (dose: 3.12 mg/kg/injection, schedule: Q04DX003 (ip), vehicle: saline with Tween-80) of the same compound?
A: Its T/C is 102 % of control and 111 % of control and 95 % of control.

Q: And the T/C (dose: 6.25 mg/kg/injection, schedule: Q04DX003 (ip), vehicle: saline with Tween-80)?
A: Its T/C is 104 % of control and 97 % of control and 98 % of control.

Q: What about the T/C (dose: 6.25 mg/kg/injection, schedule: Q04DX003 (ip), vehicle: saline) of the same compound?
A: Its T/C is 106 % of control.
